Columns and labels:
[1] = type: in vitro ADME, Dutch Belted rabbits; conditions: Dutch Belted, rabbit, 1 μM, pH 6
Experimental: Dutch Belted rabbits were euthanized with an overdose of sodium pentobarbital. The corneas were collected and homogenized in ice-cold potassium chloride solution (pH=7.4). The homogenate was centrifuged at 755×g for 30 min at 4° C. and aliquots of the supernatant were stored at or below −70° C. until metabolism experiments were conducted. Prior to storing the homogenates an aliquot was removed for determination of protein concentrations by calculating the 260 nm absorbance using a spectrophotometer. Human recombinant carboxylesterases were purchased from a commercial vendor (BD Gentest™, Bedford, Mass.)
All metabolic stability experiments were performed in triplicate in 96-well plate format. The final incubation mixture contained 1 μM test compound, 0.3 mg/mL corneal protein homogenate or 0.1 mg/mL human recombinant carboxylesterase mixture in a final volume of 0.5 mL 0.1M potassium phosphate buffer (pH=6.0). The final percentage of solvent in the incubation was less than 1.0% to prevent inhibition of enzymatic activity. Following a pre-incubation at 37° C., test article was added to initiate the reaction. At designated time points (typically less than 60 minutes to capture the linear range of metabolite formation), 0.05 mL aliquots were removed from the incubation mixtures using a clean pipet tip and immediately placed in organic solvent to stop any esterase activity. The hydrolysis to the metabolites was confirmed to be due to esterase activity and not chemical lability.
The samples were analyzed by liquid chromatography with mass spectrometry (LC-MS/MS) detection to determine the metabolite concentrations resulting from the metabolism of the hybrid compounds. Internal standards were used to compensate for variability from sample processing, chromatographic elution, mass spectrometer response and ion suppression by matrix components.

[2] = Ocular pharmacokinetics following a single topical ophthalmic administration in rabbits; type: in vivo, New Zealand White Rabbits; conditions: single topical ocular dose of 0.4% (w/v) solution; cornea, aqueous humor, conjunctiva, eyelid margin; FIG. 2
Experimental: Rabbits were dosed once by ocular instillation to both eyes with each compound formulated in a 0.4% (w/v) solution. At 0.25, 0.5, 1, 2, 6, and 10 hours post dose cornea, aqueous humor, conjunctiva and eyelid margin were collected and stored at approximately −70° C. until bioanalysis. Ocular tissue samples were analyzed by liquid chromatography with mass spectrometry (LC-MS/MS) detection to determine the parent (i.e., ester linked hybrids) and metabolite (i.e. steroid and antibiotic) concentrations resulting from the metabolism of ester linked hybrids. Internal standards were used to compensate for variability from sample processing, chromatographic elution, mass spectrometer response and ion suppression by matrix components.

Row | SMILES | Rate of formation Metabolite 1 (Betamethasone) [1] [nM/min/mg] | Rate of formation Metabolite 2 (Gatifloxacin) [1] [nM/min/mg] | Rate of formation Metabolite 1 (Dexamethasone) [1] [nM/min/mg] | uptake into ocular tissues and cleavage to Prednisolone and Gatifloxacin (AUC0-10hr) [2] | Rate of formation Metabolite 1 (Prednisolone) [1] [nM/min/mg]
1 | COc1c(N2CCNC(C)C2)c(F)cc2c(=O)c(C(=O)OCC(=O)[C@]3(O)[C@H](C)C[C@@H]4[C@H]5CCC6=CC(=O)C=C[C@@]6(C)[C@]5(F)[C@H](O)C[C@]43C)cn(C3CC3)c12 (relative stereo) [Compound 1, 2-[(8R,9S,10R,11R,13R,14R,16R,17S)-9-fluoro-11,17-dihydroxy-10,13,16-trimethyl-3-oxo-6,7,8,9,10,11,12,13,14,15,16,17-dodecahydro-3H-cyclopenta[a]phenanthren-17-yl]-2-oxoethyl rel-1-cyclopropyl-6-fluoro-8-methoxy-7-(3-methylpiperazin-1-yl)-4-oxo-1,4-dihydroquinoline-3-carboxylate] | 7.27 ± 0.58 | 4.45 ± 0.28 |  |  | 
2 | COc1c(N2CCNC(C)C2)c(F)cc2c(=O)c(C(=O)OCC(=O)[C@]3(O)[C@@H](C)C[C@@H]4[C@H]5CCC6=CC(=O)C=C[C@@]6(C)[C@]5(F)[C@H](O)C[C@]43C)cn(C3CC3)c12 (relative stereo) [Compound 7, 2-[(8R,9S,10R,11R,13R,14R,16S,17S)-9-fluoro-11,17-dihydroxy-10,13,16-trimethyl-3-oxo-6,7,8,9,10,11,12,13,14,15,16,17-dodecahydro-3H-cyclopenta[a]phenanthren-17-yl]-2-oxoethyl rel-1-cyclopropyl-6-fluoro-8-methoxy-7-(3-methylpiperazin-1-yl)-4-oxo-1,4-dihydroquinoline-3-carboxylate] |  | 4.93 ± 0.48 | 7.31 ± 0.62 |  | 
3 | COc1c(N2CCNC(C)C2)c(F)cc2c(=O)c(C(=O)OCC(=O)[C@]3(O)CC[C@@H]4[C@H]5CCC6=CC(=O)C=C[C@@]6(C)[C@@H]5[C@H](O)C[C@]43C)cn(C3CC3)c12 (relative stereo) [Compound 12, 2-[(8R,9R,10S,11R,13R,14R,17S)-11,17-dihydroxy-10,13-dimethyl-3-oxo-6,7,8,9,10,11,12,13,14,15,16,17-dodecahydro-3H-cyclopenta[a]phenanthren-17-yl]-2-oxoethyl rel-1-cyclopropyl-6-fluoro-8-methoxy-7-(3-methylpiperazin-1-yl)-4-oxo-1,4-dihydroquinoline-3-carboxylate] |  | 3.46 ± 0.50 |  | taken up into rabbit ocular tissues and enzymatically hydrolyzed to the individual antibiotic and steroid | 6.02 ± 0.63

Reference: patent US9402912B2, “Antibiotic conjugates directly linked with steroid drugs” (Allergan, Inc., priority 2013, dated 2016)
